Assay results taken from the supplement of paper PMC10307832.

How the values were obtained:
Experiment in all cases: relative viability (nuclei count vs DMSO), 5 days (fraction); higher = more cells survive
[1] = compound: CC1CC(=O)N(C2=CN=C(N=C2N1C3CCCC3)NC4=C(C=C(C=C4)C(=O)NC5CCN(CC5)C)OC)C [NPK76-II-72-1] + C[C@@H](Oc1cc(-c2cnn(C3CCNCC3)c2)cnc1N)c1c(Cl)ccc(F)c1Cl [Crizotinib] (partner 1 µM)
In short: (§1)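 Lung cancer cell lines, seeded in 1536-well plates, were treated the following day by pin tool with a single drug or with five library-drug doses (not always all listed) in √10 steps on top of a fixed anchor-drug dose. Cells were fixed and nuclei stained in one step after 5 days, and nuclei were counted. Relative viability is the nuclei count for treated wells divided by that for vehicle wells, reported as medians of duplicate plates.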

[2] = compound: CC1CC(=O)N(C2=CN=C(N=C2N1C3CCCC3)NC4=C(C=C(C=C4)C(=O)NC5CCN(CC5)C)OC)C [NPK76-II-72-1] + C[C@]1(O)C[C@@H](c2nc(-c3ccc4ccc(-c5ccccc5)nc4c3)c3c(N)nccn32)C1 [Linsitinib] (partner 1 µM)
In short: as §1

BI-2536 + Decitabine = compound: CC[C@@H]1C(=O)N(C)c2cnc(Nc3ccc(C(=O)NC4CCN(C)CC4)cc3OC)nc2N1C1CCCC1 [BI-2536] + Nc1ncn([C@H]2C[C@H](O)[C@@H](CO)O2)c(=O)n1 [Decitabine] (partner 2 µM)
In short: as §1

BI-2536 + Palbociclib = compound: CC[C@@H]1C(=O)N(C)c2cnc(Nc3ccc(C(=O)NC4CCN(C)CC4)cc3OC)nc2N1C1CCCC1 [BI-2536] + CC(=O)c1c(C)c2cnc(Nc3ccc(N4CCNCC4)cn3)nc2n(C2CCCC2)c1=O [Palbociclib] (partner 0.5 µM)
In short: as §1

Cell Line	relative viability ([1]; first compound 0.01 µM)	relative viability ([1]; first compound 0.03162 µM)	relative viability ([1]; first compound 0.1 µM)	relative viability ([1]; first compound 0.3162 µM)	relative viability ([1]; first compound 1 µM)	relative viability ([2]; first compound 0.01 µM)	relative viability ([2]; first compound 0.03162 µM)	relative viability ([2]; first compound 0.1 µM)	relative viability ([2]; first compound 0.3162 µM)	relative viability ([2]; first compound 1 µM)	relative viability (BI-2536 + Decitabine; first compound 0.01 µM)	relative viability (BI-2536 + Decitabine; first compound 0.03162 µM)	relative viability (BI-2536 + Decitabine; first compound 0.1 µM)	relative viability (BI-2536 + Decitabine; first compound 0.3162 µM)	relative viability (BI-2536 + Decitabine; first compound 1 µM)	relative viability (BI-2536 + Palbociclib; first compound 0.01 µM)	relative viability (BI-2536 + Palbociclib; first compound 0.03162 µM)	relative viability (BI-2536 + Palbociclib; first compound 0.1 µM)	relative viability (BI-2536 + Palbociclib; first compound 0.3162 µM)	relative viability (BI-2536 + Palbociclib; first compound 1 µM)
201T	1.01	1.01	1.02	1.01	1.01	1.01	0.969	1.06	1.06	1.09	0.873	0.838	0.815	0.332	0.225	0.367	0.344	0.347	0.314	0.287
A549	0.704	0.798	0.775	0.803	0.8	0.516	0.651	0.538	0.417	0.54	0.26	0.315	0.246	0.0414	0.0226					
A-427	0.798	0.908	0.907	0.777	0.969	1.1	1.09	1.15	1.14	1.13	0.555	0.539	0.469	0.204	0.185	0.519	0.498	0.453	0.219	0.203
ABC-1	0.907	1.13	1.06	1.01	1.1	0.599	0.558	0.861	0.703	0.767	1.04	0.989	0.385	0.397	0.467	0.561	0.629	0.374	0.358	0.423
BEN	0.89	1.07	0.908	0.77	0.893	0.946	1.01	0.87	0.881	0.879	0.699	0.72	0.429	0.366	0.421	0.481	0.506	0.455	0.401	0.366
CAL-12T	0.685	0.665	0.719	0.544	0.674	0.721	1.07	0.737	0.736	0.808						0.431	0.351	0.249	0.127	0.132
COR-L23	0.73	0.715	0.738	0.619	0.647	0.869	0.918	0.898	0.908	1.04	0.424	0.359	0.149	0.104	0.13	0.298	0.242	0.139	0.117	0.127
COR-L 105	0.709	0.899	0.643	0.61	0.979	1.01	0.936	1.09	0.738	1.13	0.688	0.686	0.542	0.352	0.322	0.422	0.392	0.353	0.297	0.351
Calu-6	0.757	0.784	0.763	0.713	0.861	0.981	0.912	0.897	0.948	0.946										
ChaGo-K-1	1.11	1.18	1.11	1.12	1.19						0.524	0.402	0.403	0.184	0.206	0.908	0.845	0.785	0.187	0.188
EBC-1	0.178	0.21	0.19	0.214	0.184	0.853	0.858	0.886	0.922	1.13										
EKVX	0.787	1.16	0.936	0.832	0.922	0.935	1.07	0.985	0.764	1.18	0.303	0.333	0.288	0.164	0.169	0.416	0.404	0.37	0.182	0.173
EMC-BAC-2	0.765	0.817	0.658	0.783	0.823	0.814	0.848	0.848	0.747	0.793	0.986	0.959	0.866	0.287	0.235	0.514	0.502	0.455	0.257	0.297
EPLC-272H	0.865	0.865	1.02	0.892	0.91	0.973	1.15	1.28	1.05	1.18	0.359	0.363	0.258	0.0826	0.131	0.293	0.315	0.234	0.168	0.152
H3255	0.855	0.887	0.819		1.16	0.973	0.994	0.915	0.677	1.14	0.565	0.374	0.428	0.16	0.299	0.341	0.299	0.314	0.248	0.259
HARA	0.993	1.2	1.03	1.01	1.24	1.03	0.921	0.929	0.77	1.03	0.529	0.521	0.433	0.162	0.191	0.265	0.346	0.295	0.151	0.136
HCC-15	0.773	0.874	0.846	0.756	0.834	0.85	0.911	0.952	0.826	0.953	0.652	0.504	0.246	0.124	0.151	0.704	0.66	0.547	0.17	0.144
